# Reference: patent publication US20250224399A1, “METHOD FOR DETECTING HOMOCYSTEINE IN PLASMA AND METHOD FOR DIAGNOSING GLIOBLASTOMA BY USING NOVEL FLUORESCENT PROBE” (UNIVERSITY-INDUSTRY COOPERATION GROUP OF KYUNG HEE …, priority 2022, published 2025)
# Legend:
# [1] = Selectivity toward biomolecules, thiols and metal ions (fluorescence at 550 nm); settings: pH 7.4 PBS buffer, excitation 460 nm, emission 550 nm
# Protocol: An aqueous solution (pH 7.4, PBS buffer) was used, and metal ions were purchased from Aldrich, Oriental Chemicals, Samchun chemicals, and Duksan chemicals. Compound 1 was dissolved in dimethyl sulfoxide (DMSO) at 10 mM and used, and the amount of dimethyl sulfoxide was controlled to be the same in each solvent (less than 1%) under the final solvent conditions used. The concentration of Compound 1 was 10 μM, and the biomolecule was treated identically at 10 μM. The excitation wavelength was 460 nm, and the fluorescence value at a fluorescence wavelength of 550 nm was measured using a fluorescence spectrophotometer, and is shown in FIG. 3.
# The types of ions indicated on the horizontal axis in the graph of FIG. 3 are as follows: • (A) Probe 1 with DL-Homocysteine; • (B) Probe 1 with L-Cysteine; • (C) Probe 1 with L-Glutathion; • (D) Probe 1 with Hydrogen sulfide; • (E) Probe 1 with Bovine Serum Albumin; • (F) Probe 1 with Holmium (III) chloride; • (G) Probe 1 with Iron (II) chloride; • (H) Probe 1 with Iron (III) chloride; • (I) Probe 1 with Magnesium chloride; • (J) Probe 1 with Nikel (II) chloride; • (K) Probe 1 with Phosphorus pentachloride; • (L) Probe 1 with Gold trichloride; • (M) Probe 1 with Palladium (II) chloride; • (N) Probe 1 with potassium chloride; • (O) Probe 1 with Silver nitrate; • (P) Probe 1 with Sodium chloride; and • (Q) Probe 1 with Cobalt chloride.
# [2] = Stability in aqueous solution; assay type: physicochemical; settings: pH 7.4, PBS buffer
# [3] = Homocysteine reaction time and selectivity among amino thiols (fluorescence over 0 to 30 minutes); settings: pH 7.4 PBS buffer
# Protocol: In order to identify whether Compound 1 (NPO-pyr) would react with various types of aminothiols including homocysteine under neutral conditions (pH 7.4), Compound 1 and aminothiol were added to an aqueous solution of neutral conditions (pH 7.4, PBS buffer) and the fluorescence emission graph was measured.
# Specifically, Compound 1 (10 μM) was reacted with homocysteine (DL-homocysteine, 10 μM), cysteine (10 μM), glutathione (L-glutathione, 10 μM), and hydrogen sulfide (10 μM) in an aqueous solution (pH 7.4, PBS buffer), and the fluorescence value was measured (excitation wavelength: 460 nm). Amino thiols including homocysteine were purchased from Sigma, TCI, and a fluorophotometer (SHIMADZU CORP. RF-6000, Japan) was used for fluorescence spectra analysis. In this connection, the cell that puts the compound into each device was a standard quartz cell with a thickness of 1 cm (internal volume=[…]).
# [4] = Homocysteine sensing ability in mouse feces; settings: extract of mouse feces, probe 10 μM, 10 minutes at 37° C., excitation 460 nm
# Protocol: (§1) In order to identify the detection ability of Compound 1 (NPO-pyr) for homocysteine present in mouse plasma and feces, plasma (20 μL) isolated from blood and an extract (9.5 mg) extracted from mouse feces were dissolved in an aqueous solution (DI. H2O) (5 mL), treated with homocysteine at various concentrations (1 to 160 ng/μL), and then treated with Compound 1 (10 μM). After stirring for 10 minutes in a stirrer at 37° C. for reaction, the fluorescence spectrum was measured (excitation wavelength: 460 nm). Compound 1 was dissolved in DMSO solution at […] and used, and the amount of DMSO was ensured to be the same in each container (less than 1%) under the final solvent conditions used.
# [5] = Homocysteine sensing ability in mouse plasma (limit of detection); settings: probe 10 μM, 10 minutes at 37° C., excitation 460 nm
# Protocol: as §1
# [6] = pH-dependent homocysteine sensing ability (fluorescence at 550 nm); settings: 10 μM probe, 10 μM homocysteine, stirred 10 minutes, excitation 460 nm, emission 550 nm
# Protocol: The present inventors identified the homocysteine sensing ability of Compound 1 (NPO-pyr) according to acidity (pH).
# Specifically, in order to observe the sensitivity of acidity (pH) to homocysteine based on the fluorescence turning-on of Compound 1, the sensitivity was identified under various acidity conditions (pH 3 to 9) while fixing the concentrations of Compound 1 (10 μM) and homocysteine (10 μM). In other words, 10 µM of homocysteine was treated under the conditions of pH 3, 5, 7, 7.4, and 9, respectively, and 10 μM of Compound 1 was stirred for 10 minutes, and then the fluorescence intensity was measured. In this connection, an excitation wavelength of 460 nm was used, and a fluorescence emission wavelength of 550 nm was measured. The fluorescence intensity is shown in the bar graph in FIG. 4.
# [7] = Fluorescence intensity in plasma of glioblastoma mice versus normal mice; set-up: species or system mouse; settings: plasma 7 and 14 days after the induction of glioblastoma, excitation 460 nm, emission 550 nm
# Protocol: First, in order to prepare the experimental group, a glioblastoma mouse model was created by administering a solution containing 5.0×10^5 cells in 5 μL of cell culture media without fetal bovine serum (FBS) using LUC-U87MG cells (glioblastoma cells) to the mouse brain (thalamus).
# In order to identify the reaction between Compound 1 and mouse plasma, a fluorescence measuring device (Spectro-fluorophotometer: SHIMADZU CORP. RF-6000, Japan) was used. The glass cuvette used for fluorescence measurements was a standard quartz cell with a thickness of 1 cm on all sides (internal volume=0.1 cm, Hellma Analytics, Jena, Germany).
# In addition, in order to identify the reaction between Compound 1 and mouse plasma, blood was collected from the control group and the experimental group, the plasma was isolated, reacted with Compound 1, and then the fluorescence intensity was measured at an emission wavelength of 550 nm using a fluorescence measuring device (Spectro-fluorophotometer; SHIMADZU CORP. RF-6000, Japan) (excitation wavelength: 460 nm). The glass cuvette used for fluorescence measurements was a standard quartz cell with a thickness of 1 cm on all sides (internal volume=0.1 cm, Hellma Analytics, Jena, Germany).
compound,measurement,setting,value
"O=[N+]([O-])c1ccc(Oc2ccncc2)c2nonc12 [Compound 1, 4-nitro-7-(pyridine-4-yloxy)benzo[c] [1,2,5] oxadiazole]",fluorescence intensity with homocysteine (A),"[1]; 10 μM probe, 10 μM DL-homocysteine",strong fluorescence intensity value
same,"fluorescence turn-on under amino thiol, metal ion and biomolecule conditions other than homocysteine","[1]; 10 μM probe, 10 μM analyte",little fluorescence turn-on phenomenon
same,"fluorescence intensity, probe alone (Only NPO-pyr)",[1]; 10 μM,almost no fluorescence intensity value
same,stability in an aqueous solution,[2],showed stability
same,time to increase in fluorescence after the addition of homocysteine (reaction time),"[3]; 10 μM probe, 10 μM homocysteine, excitation 460 nm",≤ 5 min
same,fluorescence emission with other amino thiols except homocysteine,"[3]; cysteine, glutathione, hydrogen sulfide, each 10 μM",no fluorescence emission was observed
same,ability to sense homocysteine in mouse feces,[4],potential to sense homocysteine
same,LOD value for homocysteine,[5],0.176 ppm
same,LOD value for homocysteine,[5]; printed conversion of the ppm value,1.3 µM
same,"sensitivity of the reaction with homocysteine at other pHs (3, 5, 9)",[6],relatively weak
same,sensitivity of the reaction with homocysteine at pH 7 and 7.4,[6],most sensitive
same,fluorescence intensity in plasma of the experimental group (glioblastoma mice) compared to the control group (normal mice),[7],stronger fluorescence intensity
